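1) Cells in 96-well plates. 2) Compound, 48 h, 5 concentrations. 3) Linear interpolation between surrounding doses. 4) Unreached endpoint = highest concentration. GI50 marks 50% less growth.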 Calls of active or inactive are those of the source. Cut-off read from the data, not from the text of the source: active = GI50 up to about 1.1 µM and inactive = higher.
Tests used:
Assay in all cases: inhibition of tumour cell growth, NCI panel, 48 h
A549 = tested on: A549
M14 = tested on: M14
COLO 205 = tested on: COLO 205
Malme-3M = tested on: Malme-3M
MDA-N = tested on: MDA-N
UO-31 = tested on: UO-31
SNB-19 = tested on: SNB-19
ACHN = tested on: ACHN
SW-620 = tested on: SW-620
NCI-H226 = tested on: NCI-H226
KM12 = tested on: KM12
Hs-578T = tested on: Hs-578T
MDA-MB-435 = tested on: MDA-MB-435
HCT-116 = tested on: HCT-116
SK-OV-3 = tested on: SK-OV-3
UACC-62 = tested on: UACC-62
CAKI-1 = tested on: CAKI-1
IGROV-1 = tested on: IGROV-1
PC-3 = tested on: PC-3
TK-10 = tested on: TK-10

SMILES	GI50 (A549)	GI50 (M14)	GI50 (COLO 205)	GI50 (Malme-3M)	GI50 (MDA-N)	GI50 (UO-31)	GI50 (SNB-19)	GI50 (ACHN)	GI50 (SW-620)	GI50 (NCI-H226)	GI50 (KM12)	GI50 (Hs-578T)	GI50 (MDA-MB-435)	GI50 (HCT-116)	GI50 (SK-OV-3)	GI50 (UACC-62)	GI50 (CAKI-1)	GI50 (IGROV-1)	GI50 (PC-3)	GI50 (TK-10)
CC(=O)Nc1ccc(-c2nc3ccccc3s2)cc1I	45 µM (inactive)	36.8 µM (inactive)	89.3 µM (inactive)	34.8 µM (inactive)	> 100 µM (inactive)	15.1 µM (inactive)	24.3 µM (inactive)	26.5 µM (inactive)	> 100 µM (inactive)	7.96 µM (inactive)	54 µM (inactive)	39.5 µM (inactive)	> 94.8 µM (inactive)	1.16 µM (inactive)	18.3 µM (inactive)	22.6 µM (inactive)	20 µM (inactive)	0.0184 µM (active)	41.6 µM (inactive)	–
O=C1CC(=O)NC(NN2C(=O)CSC2C(=O)c2ccco2)=N1 (configuration not stated)	> 100 µM (inactive)	> 100 µM (inactive)	> 100 µM (inactive)	> 100 µM (inactive)	> 100 µM (inactive)	> 100 µM (inactive)	–	> 100 µM (inactive)	> 100 µM (inactive)	> 100 µM (inactive)	3.05 µM (inactive)	> 100 µM (inactive)	> 100 µM (inactive)	> 100 µM (inactive)	> 100 µM (inactive)	> 100 µM (inactive)	> 100 µM (inactive)	> 100 µM (inactive)	> 100 µM (inactive)	> 100 µM (inactive)
C=C(C)[C@@]1(O)CCCC[C@@H]1CC(Sc1ccccc1)Sc1ccccc1	13.9 µM (inactive)	17.9 µM (inactive)	16.4 µM (inactive)	12.6 µM (inactive)	20 µM (inactive)	16 µM (inactive)	18.5 µM (inactive)	37.6 µM (inactive)	–	16.3 µM (inactive)	14.2 µM (inactive)	15.7 µM (inactive)	16.2 µM (inactive)	12.5 µM (inactive)	19.6 µM (inactive)	41.9 µM (inactive)	14.9 µM (inactive)	16.4 µM (inactive)	16.3 µM (inactive)	15.5 µM (inactive)
COc1cc(/C=N/n2c(C)n[nH]c2=O)cc(OC)c1OC	> 100 µM (inactive)	> 100 µM (inactive)	> 100 µM (inactive)	> 100 µM (inactive)	> 100 µM (inactive)	84.3 µM (inactive)	> 100 µM (inactive)	> 100 µM (inactive)	> 100 µM (inactive)	> 100 µM (inactive)	60.1 µM (inactive)	0.583 µM (active)	62.5 µM (inactive)	> 100 µM (inactive)	> 100 µM (inactive)	63.1 µM (inactive)	> 100 µM (inactive)	–	> 100 µM (inactive)	–
COc1ccc(-c2c(N)n(-c3nc4ccccc4s3)c(=O)c3cc([N+](=O)[O-])ccc23)cc1	11.2 µM (inactive)	17.8 µM (inactive)	–	20.7 µM (inactive)	70.5 µM (inactive)	16.3 µM (inactive)	40.1 µM (inactive)	22 µM (inactive)	19.7 µM (inactive)	37.3 µM (inactive)	18.6 µM (inactive)	13.7 µM (inactive)	19 µM (inactive)	20.1 µM (inactive)	15.3 µM (inactive)	> 100 µM (inactive)	21.3 µM (inactive)	–	30.8 µM (inactive)	38.1 µM (inactive)
C=C1C(=O)C23C(O)CC4C(C)(C)CCC(O)C4(C)C2CC(OC(C)=O)C1[C@H]3O (some centres not stated)	4.06 µM (inactive)	2.82 µM (inactive)	1.98 µM (inactive)	3.37 µM (inactive)	7.87 µM (inactive)	15.3 µM (inactive)	8.99 µM (inactive)	4.12 µM (inactive)	1.01 µM (active)	9.31 µM (inactive)	15.8 µM (inactive)	24 µM (inactive)	7.96 µM (inactive)	2 µM (inactive)	17.3 µM (inactive)	–	2.37 µM (inactive)	4.79 µM (inactive)	11.4 µM (inactive)	2.22 µM (inactive)

Source: ChEMBL document CHEMBL1201862, “PubChem BioAssay data set” (2004)
